A short description of data set [1]: Metabolic stability in human liver microsomes assessed as half life preincubated with NADPH and UDPGA for 5 mins followed by compound addition and measured upto 60 mins by LC-MS/MS analysis. The data set is classed as ADME, Microsome. For orientation: Liver microsomes are a subcellular fraction often used to study metabolism.
A short description of data set [2]: Metabolic stability in human liver microsomes assessed as intrinsic clearance preincubated with NADPH and UDPGA for 5 mins followed by compound addition and measured upto 60 mins by LC-MS/MS analysis. The class given is ADME, Microsome. Particulars: read-out: CLH.
In data set [3] the target is T1, Protein cereblon/Zinc finger protein Helios (Homo sapiens) (UniProt Q96SW2+Q9UKS7). The data set can be described thus: Protac activity at CRBN/IKZF2 in human MOLM-13 cells at 25 uM incubated for 24 hrs by Western blotting analysis relative to control. The class given is cell-based. (A western blot detects proteins with antibodies after separation by electrophoresis.)
T1 sequence (Q96SW2 whole entry, looked up): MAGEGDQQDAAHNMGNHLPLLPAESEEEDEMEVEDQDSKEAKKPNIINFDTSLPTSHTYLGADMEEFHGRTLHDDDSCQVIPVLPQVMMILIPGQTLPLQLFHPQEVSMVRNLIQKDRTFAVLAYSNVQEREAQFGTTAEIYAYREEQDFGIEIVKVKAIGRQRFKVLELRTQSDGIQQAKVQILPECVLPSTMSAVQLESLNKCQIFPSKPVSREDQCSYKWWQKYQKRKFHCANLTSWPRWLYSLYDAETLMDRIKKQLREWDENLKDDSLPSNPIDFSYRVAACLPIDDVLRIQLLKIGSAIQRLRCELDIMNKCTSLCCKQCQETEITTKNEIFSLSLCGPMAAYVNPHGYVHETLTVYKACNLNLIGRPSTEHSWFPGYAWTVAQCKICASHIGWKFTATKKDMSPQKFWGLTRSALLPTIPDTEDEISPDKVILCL
T1 sequence (Q9UKS7 whole entry, looked up): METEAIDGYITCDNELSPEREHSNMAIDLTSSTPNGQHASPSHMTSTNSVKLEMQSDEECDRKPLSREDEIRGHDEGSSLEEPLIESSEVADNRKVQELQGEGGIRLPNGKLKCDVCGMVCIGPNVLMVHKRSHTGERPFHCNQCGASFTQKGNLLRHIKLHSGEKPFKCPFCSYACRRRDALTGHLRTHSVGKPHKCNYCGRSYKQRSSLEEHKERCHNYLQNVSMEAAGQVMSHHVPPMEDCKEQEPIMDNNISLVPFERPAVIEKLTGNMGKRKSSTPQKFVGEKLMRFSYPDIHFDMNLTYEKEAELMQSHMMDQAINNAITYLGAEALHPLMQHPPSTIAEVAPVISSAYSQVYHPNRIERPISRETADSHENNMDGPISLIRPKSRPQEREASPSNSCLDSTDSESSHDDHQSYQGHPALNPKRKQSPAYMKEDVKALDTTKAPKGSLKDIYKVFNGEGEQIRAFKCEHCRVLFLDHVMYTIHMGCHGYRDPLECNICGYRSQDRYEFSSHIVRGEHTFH

Data set [4] addresses T2, Cereblon/Ikaros (Homo sapiens) (UniProt Q96SW2+Q13422). The experiment in a line: Protac activity at CRBN/IKZF1 in human MOLM-13 cells assessed as relative ratio at 25 uM incubated for 24 hrs by Western blotting analysis relative to DMSO. The class given is cell-based.
The target of data set [5] is T2, Cereblon/Ikaros (Homo sapiens). The experiment in a line: Protac activity at CRBN/IKZF1 in human MOLM-13 cells at 25 uM incubated for 24 hrs by Western blotting analysis relative to control. The class given is cell-based.
Data set [6] can be described thus: Metabolic stability in mouse liver microsomes assessed as half life preincubated with NADPH and UDPGA for 5 mins followed by compound addition and measured upto 60 mins by LC-MS/MS analysis. The class given is ADME, Microsome.
Data set [7] addresses T1, Protein cereblon/Zinc finger protein Helios (Homo sapiens). The data set can be described thus: Protac activity at CRBN/IKZF2 in human MOLM-13 cells assessed as relative ratio at 25 uM incubated for 24 hrs by Western blotting analysis relative to DMSO. The class given is cell-based.
A short description of data set [8]: Metabolic stability in mouse liver microsomes assessed as intrinsic clearance preincubated with NADPH and UDPGA for 5 mins followed by compound addition and measured upto 60 mins by LC-MS/MS analysis. The class given is ADME, Microsome. Particulars: read-out: CLH.
For data set [9], the target named is T3, Cereblon/Casein kinase I alpha (Homo sapiens) (UniProt P48729+Q96SW2). The experiment in a line: Protac activity at CRBN/CK1alpha (unknown origin) transfected in HEK293T cells at 100 nM incubated for 24 hrs by flow cytometry analysis relative to control. The class given is cell-based. In general terms: Flow cytometry measures light scatter and fluorescence of single cells or particles in a stream.
T3 sequence (P48729 2-337 limits assumed): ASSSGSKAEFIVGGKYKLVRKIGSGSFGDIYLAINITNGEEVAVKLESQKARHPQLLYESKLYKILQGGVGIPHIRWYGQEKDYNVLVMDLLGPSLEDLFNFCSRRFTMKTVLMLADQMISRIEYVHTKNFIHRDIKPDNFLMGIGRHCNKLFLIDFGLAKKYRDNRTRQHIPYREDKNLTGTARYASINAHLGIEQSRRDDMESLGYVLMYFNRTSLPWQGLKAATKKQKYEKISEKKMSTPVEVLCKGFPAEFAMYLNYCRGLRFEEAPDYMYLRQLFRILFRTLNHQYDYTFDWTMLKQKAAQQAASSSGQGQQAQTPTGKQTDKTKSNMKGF
T3 sequence (Q96SW2 whole entry partner): as the sequence (Q96SW2 whole entry, looked up) above

Data set [10] concerns the target T1, Protein cereblon/Zinc finger protein Helios (Homo sapiens). The experiment in a line: Protac activity at CRBN/IKZF2 (unknown origin) transfected in HEK293T cells at 100 nM incubated for 24 hrs by flow cytometry analysis relative to control. The data set is classed as cell-based.
Data set [11] is described as follows: Solubility of compound in DMSO. The class given is physicochemical.
The target in data set [12] is T2, Cereblon/Ikaros (Homo sapiens). The data set can be described thus: Protac activity at CRBN/IKZF1 (unknown origin) transfected in HEK293T cells at 100 nM incubated for 24 hrs by flow cytometry analysis relative to control. The class given is cell-based.
Data set [13] deals with T4, Protein cereblon/Eukaryotic peptide chain release factor GTP-binding subunit ERF3A (Homo sapiens) (UniProt Q96SW2+P15170). The experiment in a line: Protac activity at CRBN/GSPT1 (unknown origin) transfected in HEK293T cells at 100 nM incubated for 24 hrs by flow cytometry analysis relative to control. The data set is classed as cell-based.
T4 sequence (P15170 whole entry, looked up): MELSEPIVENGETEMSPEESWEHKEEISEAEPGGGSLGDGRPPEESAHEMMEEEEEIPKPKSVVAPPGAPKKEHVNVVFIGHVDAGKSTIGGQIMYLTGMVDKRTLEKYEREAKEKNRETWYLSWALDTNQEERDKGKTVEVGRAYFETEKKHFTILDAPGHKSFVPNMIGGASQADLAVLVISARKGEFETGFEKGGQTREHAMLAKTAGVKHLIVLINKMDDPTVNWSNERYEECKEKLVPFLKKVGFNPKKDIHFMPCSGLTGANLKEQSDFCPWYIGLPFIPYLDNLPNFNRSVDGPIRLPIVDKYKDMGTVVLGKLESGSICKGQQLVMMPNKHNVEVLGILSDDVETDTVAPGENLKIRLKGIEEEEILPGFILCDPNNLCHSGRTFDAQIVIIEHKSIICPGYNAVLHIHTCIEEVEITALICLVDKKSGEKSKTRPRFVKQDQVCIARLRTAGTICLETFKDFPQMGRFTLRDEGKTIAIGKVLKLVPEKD
T4 sequence (Q96SW2 whole entry, looked up): as the sequence (Q96SW2 whole entry, looked up) above
The subject of another data set is OCI-Ly3. The experiment in a line: Cytotoxicity against human OCILY3 cells incubated for 5 days by MTT assay. The data set is classed as functional, cell-based. To be noted: time 5.0 day.
The subject of another data set is A2780. The experiment in a line: Cytotoxicity against human A2780 cells incubated for 5 days by MTT assay. The class given is functional, cell-based. To be noted: time 5.0 day.
In data set [14] the target is T2, Cereblon/Ikaros (Homo sapiens). The data set can be described thus: Protac activity at CRBN/IKZF1 (unknown origin) transfected in HEK293T cells at 1 uM incubated for 24 hrs by flow cytometry analysis relative to control. The data set is classed as cell-based.
Data set [15] has as its target T3, Cereblon/Casein kinase I alpha (Homo sapiens). The experiment in a line: Protac activity at CRBN/CK1alpha (unknown origin) transfected in HEK293T cells at 1 uM incubated for 24 hrs by flow cytometry analysis relative to control. The class given is cell-based.
Data set [16] deals with T1, Protein cereblon/Zinc finger protein Helios (Homo sapiens). The data set can be described thus: Protac activity at CRBN/IKZF2 (unknown origin) transfected in HEK293T cells at 1 uM incubated for 24 hrs by flow cytometry analysis relative to control. The class given is cell-based.
In data set [17] the target is T4, Protein cereblon/Eukaryotic peptide chain release factor GTP-binding subunit ERF3A (Homo sapiens). The data set can be described thus: Protac activity at CRBN/GSPT1 (unknown origin) transfected in HEK293T cells at 1 uM incubated for 24 hrs by flow cytometry analysis relative to control. The data set is classed as cell-based.
For data set [18] the target is unchanged. The data set can be described thus: Protac activity at CRBN/GSPT1 in human NCI-H1048 cells at 10 to 100 nM incubated for 24 hrs by Western blotting analysis. The data set is classed as cell-based. To be noted: dose 10-100 nM.

The term half-life denotes the time needed for the level to fall by half in the phase considered. Usually solubility stands for the dissolved amount per volume that the medium holds.

Converted amounts (≈) assume the structure as drawn. The source made the active and inactive calls.

For `O=C1CCC(N2Cc3cc(NC(=O)c4ccc5ccccc5c4)ccc3C2=O)C(=O)N1` (configuration not stated), the half-life in [1] and in [6] was greater than 4.25 h throughout. For the same compound, the microsomal CLint in data set [2] and in data set [8] was less than 5.4 µL/min/mg each time. Further, the result in data set [3] was Active. Further, the Ratio in data set [4] turned out to be 0.5; in data set [7] it was 0.27. The outcome in data set [5] was inactive.
Consider `CC(C)Oc1ccc2cc(C(=O)Nc3ccc4c(c3)CN(C3CCC(=O)NC3=O)C4=O)ccc2c1` (configuration not stated), for which the half-life in [1] and in data set [6] was greater than 4.25 h each time. For the same compound, the values for the Activity in [9] and in data set [10] were 70% and 81%, respectively. The microsomal CLint in data set [2] and in data set [8] was less than 5.4 µL/min/mg each time.
Consider `COc1ccc2c(c1)OCC(C(=O)Nc1ccc3c(c1)CN(C1CCC(=O)NC1=O)C3=O)=C2` (configuration not stated), for which the Activity in [9] was determined as 60%; in data set [10], 57%; in [12], 4%; in [13] it was 9%. Besides, the solubility in data set [11] (DMSO, read-out: solubility) amounted to 50 mM (≈ 22.4 mg/mL).
For `COc1cccc2c1C=C(C(=O)Nc1ccc3c(c1)CN(C1CCC(=O)NC1=O)C3=O)CO2` (configuration not stated), in that order: 59%, 75%, 39%, 24% and 50 mM (≈ 22.4 mg/mL).
Turning to `COc1ccc2cc(C(=O)Nc3ccc4c(c3)CN(C3CCC(=O)NC3=O)C4=O)cnc2c1` (configuration not stated), the half-life in data set [1] is 0.338 h; in data set [6], greater than 4.25 h. For the same compound, the Activity in [9] was determined as 62%; in data set [10], 73%. Moreover, the microsomal CLint was 68.4 µL/min/mg in data set [2] and less than 5.4 µL/min/mg in data set [8].
For the compound `O=C1CCC(N2Cc3cc(NC(=O)C4=Cc5ccc(Br)cc5OC4)ccc3C2=O)C(=O)N1` (configuration not stated), the Activity amounted to 62% in [9], 80% in data set [10], 13% in [12] and 22% in data set [13]. The solubility in data set [11] (DMSO, read-out: solubility) came out at 50 mM (≈ 24.8 mg/mL).
For `[2H]C([2H])([2H])Oc1ccc2cc(C(=O)Nc3ccc4c(c3)CN(C3CCC(=O)NC3=O)C4=O)ccc2c1` (configuration not stated), the half-life in data set [1] is 0.08 h; in [6] it was greater than 4.25 h. The figures for the microsomal CLint in data set [2] and in [8] were 290 µL/min/mg and less than 5.4 µL/min/mg, respectively.
Consider `CCCCOc1ccc2cc(C(=O)Nc3ccc4c(c3)CN(C3CCC(=O)NC3=O)C4=O)ccc2c1` (configuration not stated), for which the half-life in data set [1] and in data set [6] was greater than 4.25 h in each case. In addition, the figures for the Activity in data set [9] and in data set [10] were 70% and 81%, respectively. Besides, the microsomal CLint in data set [2] and in data set [8] was less than 5.4 µL/min/mg each time.
Consider `CCOc1ccc2cc(C(=O)Nc3ccc4c(c3)CN(C3CCC(=O)NC3=O)C4=O)ccc2c1` (configuration not stated), for which the half-life in [1] and in data set [6] was greater than 4.25 h each time. The Activity turned out to be 71% in data set [9] and 80% in [10]. Moreover, the microsomal CLint in data set [2] and in [8] was less than 5.4 µL/min/mg in each case.
Take `COc1cc(Br)cc2c1OCC(C(=O)Nc1ccc3c(c1)CN(C1CCC(=O)NC1=O)C3=O)=C2` (configuration not stated): the Activity came to 65% in data set [9], 74% in [10], 13% in [12] and 2% in [13]. In addition, in data set [11] (DMSO, read-out: solubility), the solubility came to 50 mM (≈ 26.3 mg/mL).
Take `COc1ccc2cc(C(=O)Nc3ccc4c(c3)CN(C3CCC(=O)NC3=O)C4=O)ccc2n1` (configuration not stated): the half-life in data set [1] was 0.268 h; in [6] it was greater than 4.25 h. Besides, the values for the Activity in [9] and in [10] were 68% and 89%, respectively. For the same compound, the microsomal CLint was 108 µL/min/mg in data set [2] and less than 5.4 µL/min/mg in data set [8].
On to `O=C1CCC(N2Cc3cc(NC(=O)c4cc5ccccc5o4)ccc3C2=O)C(=O)N1` (configuration not stated), for which the Activity turned out to be 62% in data set [9], 80% in data set [10], 13% in data set [12] and 2% in [13]. Further, the solubility in [11] was found to be 25 mM (≈ 10.1 mg/mL).
Turning to `COc1ccc2nc(C(=O)Nc3ccc4c(c3)CN(C3CCC(=O)NC3=O)C4=O)ccc2c1` (configuration not stated), the half-life in data set [1] stood at 0.265 h; in data set [6], 0.398 h. For the same compound, the Activity is 69% in data set [9] and 87% in [10]. Further, the values for the microsomal CLint in data set [2] and in [8] were 87.4 µL/min/mg and 57.9 µL/min/mg, respectively.
Take `Cc1ccc2c(c1)OCC(C(=O)Nc1ccc3c(c1)CN(C1CCC(=O)NC1=O)C3=O)=C2` (configuration not stated): the Activity turned out to be 64% in data set [9], 73% in [10], 9% in [12] and 14% in [13]. Moreover, in [11] (DMSO, read-out: solubility), the solubility is 50 mM (≈ 21.6 mg/mL).
For the compound `Nc1cccc2c1CN(C1CCC(=O)NC1=O)C2=O` (configuration not stated) [LENALIDOMIDE], the half-life in [1] and in [6] was greater than 6 h in each case.
As to `COc1ccc2cc(C(=O)Nc3ccc4c(c3)CN(C3CCC(=O)NC3=O)C4=O)ncc2c1` (configuration not stated), the results for the half-life in data set [1] and in data set [6] were 0.04 h and 3.48 h, respectively. Further, the Activity in data set [9] amounted to 61%; in data set [10], 68%. The figures for the microsomal CLint in [2] and in [8] were 584 µL/min/mg and 6.6 µL/min/mg, respectively.
As for `COc1ccc2c(c1)C=C(C(=O)Nc1ccc3c(c1)CN(C1CCC(=O)NC1=O)C3=O)CO2` (configuration not stated), the Activity in [9] stood at 66%; in [10], 75%; in data set [12], 16%; in [13], 9%. In addition, the solubility in data set [11] (DMSO, read-out: solubility) was found to be 50 mM (≈ 22.4 mg/mL).
Turning to `COc1cc(C(=O)O)ccc1NC(=O)[C@@H]1N[C@@H](CC(C)(C)C)[C@](C#N)(c2ccc(Cl)cc2F)[C@H]1c1cccc(Cl)c1F`, the outcome in the data set with OCI-Ly3 and with A2780 was inactive.
As for `COc1ccc2cc(C(=O)Nc3ccc4c(c3)CN(C3CCC(=O)NC3=O)C4=O)ccc2c1` (configuration not stated), the Activity was determined as 70% in data set [9]; 52% in data set [9] (tested as the 2H-labelled form); 90% in data set [10]; 70% in data set [10] (tested as the 2H-labelled form); 7% in [12]; 9% in data set [14]. In addition, the Activity in data set [15] was determined as 70%; in data set [13] it was 8%; in data set [16] it was 94%; in data set [17], 18%. Moreover, the results for the microsomal CLint in data set [2] and in data set [8] were 362 µL/min/mg and 7.4 µL/min/mg, respectively. Further, the half-life in data set [6] turned out to be 3.13 h. The result in data set [18] was Active.
Take `O=C1CCC(N2Cc3cc(NC(=O)C4=Cc5ccc(C(F)(F)F)cc5OC4)ccc3C2=O)C(=O)N1` (configuration not stated): the Activity stood at 65% in data set [9], 70% in data set [10], 8% in [12] and 3% in data set [13]. The solubility in data set [11] (DMSO, read-out: solubility) was 50 mM (≈ 24.3 mg/mL).

(Values after ChEMBL document CHEMBL5375992, “Design and Development of IKZF2 and CK1α Dual Degraders” (J Med Chem, 2023).)
